# Test results from the supplement of paper PMC10307832.
# Experiments:
# Assay in all cases: relative viability (nuclei count vs DMSO), 5 days (fraction); higher = more cells survive
# LC-2-ad = conditions: first compound 500 µM
# Method in brief: (§1)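 Relative viability was taken as the ratio of nuclei in treated wells to nuclei in vehicle wells. Lung cancer cell lines in 1536-well plates received compounds by pin tool one day after seeding, either one drug alone or a fixed anchor-drug dose plus five library-drug doses (not always all listed) in √10 steps. Nuclei were counted on 4× images after 5 days of treatment, and values are medians of duplicate plates.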
# LCLC-97TM1 = system: LCLC-97TM1
# Method in brief: as §1
# LU99A = system: LU99A
# Method in brief: as §1
# LXF-289 = system: LXF-289
# Method in brief: as §1
# NCI-H1993 = system: NCI-H1993
# Method in brief: as §1
# NCI-H2009 = system: NCI-H2009
# Method in brief: as §1
# NCI-H2087 = system: NCI-H2087
# Method in brief: as §1
# NCI-H2126 = system: NCI-H2126
# Method in brief: as §1
# NCI-H2170 = system: NCI-H2170
# Method in brief: as §1
# PC-14 = system: PC-14
# Method in brief: as §1
# PC-3 [JPC-3] = system: PC-3 [JPC-3]
# Method in brief: as §1
# SK-MES-1 = system: SK-MES-1
# Method in brief: as §1
smiles,measurement,setting,value
O=C(O)CCCCC(CCSCc1ccccc1)SCc1ccccc1 (stereo not given) [CPI-613] + Nc1nc2[nH]cc(CCc3ccc(C(=O)N[C@@H](CCC(=O)O)C(=O)O)cc3)c2c(=O)[nH]1 [Pemetrexed] (partner 0.2 µM),relative viability,LC-2-ad,0.0144
same,relative viability,LCLC-97TM1; first compound 5 µM,0.166
same,relative viability,LCLC-97TM1; first compound 15.81 µM,0.208
same,relative viability,LCLC-97TM1; first compound 50 µM,0.176
same,relative viability,LCLC-97TM1; first compound 158.11 µM,0.162
same,relative viability,LCLC-97TM1; first compound 500 µM,0.0608
same,relative viability,LU99A; first compound 5 µM,0.179
same,relative viability,LU99A; first compound 15.81 µM,0.199
same,relative viability,LU99A; first compound 50 µM,0.179
same,relative viability,LU99A; first compound 158.11 µM,0.186
same,relative viability,LU99A; first compound 500 µM,0.183
same,relative viability,LXF-289; first compound 5 µM,0.903
same,relative viability,LXF-289; first compound 15.81 µM,0.828
same,relative viability,LXF-289; first compound 50 µM,0.851
same,relative viability,LXF-289; first compound 158.11 µM,0.757
same,relative viability,LXF-289; first compound 500 µM,0.568
same,relative viability,NCI-H1993; first compound 5 µM,0.601
same,relative viability,NCI-H1993; first compound 15.81 µM,0.522
same,relative viability,NCI-H1993; first compound 50 µM,0.537
same,relative viability,NCI-H1993; first compound 158.11 µM,0.378
same,relative viability,NCI-H1993; first compound 500 µM,0.278
same,relative viability,NCI-H2009; first compound 5 µM,0.985
same,relative viability,NCI-H2009; first compound 15.81 µM,1
same,relative viability,NCI-H2009; first compound 50 µM,0.947
same,relative viability,NCI-H2009; first compound 158.11 µM,0.322
same,relative viability,NCI-H2009; first compound 500 µM,0.0262
same,relative viability,NCI-H2087; first compound 5 µM,0.642
same,relative viability,NCI-H2087; first compound 15.81 µM,0.662
same,relative viability,NCI-H2087; first compound 50 µM,0.689
same,relative viability,NCI-H2087; first compound 158.11 µM,0.574
same,relative viability,NCI-H2087; first compound 500 µM,0.007
same,relative viability,NCI-H2126; first compound 5 µM,0.65
same,relative viability,NCI-H2126; first compound 15.81 µM,0.632
same,relative viability,NCI-H2126; first compound 50 µM,0.636
same,relative viability,NCI-H2126; first compound 158.11 µM,0.385
same,relative viability,NCI-H2126; first compound 500 µM,0.219
same,relative viability,NCI-H2170; first compound 5 µM,0.278
same,relative viability,NCI-H2170; first compound 15.81 µM,0.251
same,relative viability,NCI-H2170; first compound 50 µM,0.244
same,relative viability,NCI-H2170; first compound 158.11 µM,0.26
same,relative viability,NCI-H2170; first compound 500 µM,0.227
same,relative viability,PC-14; first compound 5 µM,0.133
same,relative viability,PC-14; first compound 15.81 µM,0.13
same,relative viability,PC-14; first compound 50 µM,0.122
same,relative viability,PC-14; first compound 158.11 µM,0.121
same,relative viability,PC-14; first compound 500 µM,0.0065
same,relative viability,PC-3 [JPC-3]; first compound 5 µM,1.13
same,relative viability,PC-3 [JPC-3]; first compound 50 µM,1.11
same,relative viability,PC-3 [JPC-3]; first compound 158.11 µM,0.606
same,relative viability,PC-3 [JPC-3]; first compound 500 µM,0.362
same,relative viability,SK-MES-1; first compound 5 µM,0.975
same,relative viability,SK-MES-1; first compound 15.81 µM,0.807
same,relative viability,SK-MES-1; first compound 50 µM,0.737
same,relative viability,SK-MES-1; first compound 158.11 µM,0.17
same,relative viability,SK-MES-1; first compound 500 µM,0.104
